Source: ChEMBL document CHEMBL3872201, “Synthesis and antiproliferative activity of a natural like glycoconjugate polycyclic compound” (2016)
Active and inactive are the calls of the source. The rule behind the calls is not given here.

Columns and labels:
[1] = Cell cycle arrest in human MDA-MB-231 cells assessed as accumulation at subG0/G1 phase at 10 uM after 24 hrs by propidium iodide staining based flow cytometric analysis (reference value: 7.6%); assay type: functional
[2] = Cell cycle arrest in human MDA-MB-231 cells assessed as accumulation at subG0/G1 phase at 5 uM after 48 hrs by propidium iodide staining based flow cytometric analysis (reference value: 8.8%); assay type: functional
[3] = Antiproliferative activity against human CCRF-CEM cells after 48 hrs by sulforhodamine B assay; assay type: functional
[4] = Antiproliferative activity against human MDA-MB-435 cells after 48 hrs by sulforhodamine B assay; assay type: functional; conditions: MDA-MB-435, 48 h
[5] = Cell cycle arrest in human MDA-MB-231 cells assessed as accumulation at G2/M phase at 10 uM after 24 hrs by propidium iodide staining based flow cytometric analysis (reference value: 20.4%); assay type: functional
[6] = Cell cycle arrest in human MDA-MB-231 cells assessed as accumulation at G0/G1 phase at 5 uM after 72 hrs by propidium iodide staining based flow cytometric analysis (reference value: 69.3%); assay type: functional
[7] = Antiproliferative activity against human M14 cells after 48 hrs by sulforhodamine B assay; assay type: functional; conditions: M14, 48 h
[8] = Antiproliferative activity against human PC3 cells after 48 hrs by sulforhodamine B assay; assay type: functional; conditions: PC-3, 48 h
[9] = Cell cycle arrest in human MDA-MB-231 cells assessed as accumulation at G0/G1 phase at 10 uM after 48 hrs by propidium iodide staining based flow cytometric analysis (reference value: 67%); assay type: functional
[10] = Antiproliferative activity against human K562 cells after 48 hrs by sulforhodamine B assay; assay type: functional; conditions: K562, 48 h
[11] = Antiproliferative activity against human MDA-MB-231 cells after 48 hrs by sulforhodamine B assay; assay type: functional; conditions: MDA-MB-231, 48 h
[12] = Antiproliferative activity against human LOXIMVI cells after 48 hrs by sulforhodamine B assay; assay type: functional; conditions: LOX IMVI
[13] = Antiproliferative activity against human NCI-H23 cells after 48 hrs by sulforhodamine B assay; assay type: functional; conditions: NCI-H23, 48 h
[14] = Antiproliferative activity against human A549/ATCC cells after 48 hrs by sulforhodamine B assay; assay type: functional; conditions: A549, 48 h
[15] = Cytotoxicity against human MDA-MB-231 cells assessed as inhibition of cell viability at 10 uM after 24 hrs by MTT assay relative to control; assay type: functional; conditions: MDA-MB-231, 24 h
[16] = Antiproliferative activity against human SK-MEL-2 cells after 48 hrs by sulforhodamine B assay; assay type: functional; conditions: SK-MEL-2, 48 h
[17] = Cell cycle arrest in human MDA-MB-231 cells assessed as accumulation at G2/M phase at 10 uM after 48 hrs by propidium iodide staining based flow cytometric analysis (reference value: 19.5%); assay type: functional
[18] = Antiproliferative activity against human NCI-H226 cells after 48 hrs by sulforhodamine B assay; assay type: functional; conditions: NCI-H226, 48 h
[19] = Antiproliferative activity against human HCT15 cells after 48 hrs by sulforhodamine B assay; assay type: functional; conditions: HCT-15, 48 h
[20] = Antiproliferative activity against human HOP92 cells after 48 hrs by sulforhodamine B assay; assay type: functional; conditions: HOP-92, 48 h
[21] = Cell cycle arrest in human MDA-MB-231 cells assessed as cell flattening at 5 to 10 uM after 8 days by light microscopic analysis; assay type: functional, cell-based
[22] = Antiproliferative activity against human MALME-3M cells after 48 hrs by sulforhodamine B assay; assay type: functional
[23] = tested on: MDA-MB-231; experiment: Cytotoxicity against human MDA-MB-231 cells assessed as inhibition of cell viability after 48 hrs by MTT assay relative to control; assay type: functional, cell-based
[24] = Antiproliferative activity against human NCI-H522 cells after 48 hrs by sulforhodamine B assay; assay type: functional; conditions: NCI-H522, 48 h
[25] = Antiproliferative activity against human HCT116 cells after 48 hrs by sulforhodamine B assay; assay type: functional; conditions: HCT-116, 48 h
[26] = Antiproliferative activity against human MCF7 cells after 48 hrs by sulforhodamine B assay; assay type: functional; conditions: MCF7, 48 h
[27] = Antiproliferative activity against human HT-29 cells after 48 hrs by sulforhodamine B assay; assay type: functional; conditions: HT-29, 48 h
[28] = Antiproliferative activity against human NCI-H322M cells after 48 hrs by sulforhodamine B assay; assay type: functional
[29] = tested on: MDA-MB-231; experiment: Effect on cell cycle regulatory protein in human MDA-MB-231 cells assessed as cyclin B1 level at 10 uM after 48 hrs by Western blot analysis relative to control; assay type: functional
[30] = Cell cycle arrest in human MDA-MB-231 cells assessed as accumulation at G2/M phase at 5 uM after 24 hrs by propidium iodide staining based flow cytometric analysis (reference value: 20.4%); assay type: functional
[31] = tested on: MDA-MB-231; experiment: Effect on cell cycle regulatory protein in human MDA-MB-231 cells assessed as p21 level at 10 uM after 24 hrs by Western blot analysis relative to control; assay type: functional
[32] = tested on: MDA-MB-231; experiment: Effect on cell cycle regulatory protein in human MDA-MB-231 cells assessed as cdc2 level at 10 uM after 48 hrs by Western blot analysis relative to control; assay type: functional
[33] = Cell cycle arrest in human MDA-MB-231 cells assessed as accumulation at G0/G1 phase at 5 uM after 24 hrs by propidium iodide staining based flow cytometric analysis (reference value: 66.5%); assay type: functional
[34] = Antiproliferative activity against human UACC257 cells after 48 hrs by sulforhodamine B assay; assay type: functional; conditions: UACC-257, 48 h
[35] = Antiproliferative activity against human MOLT4 cells after 48 hrs by sulforhodamine B assay; assay type: functional; conditions: MOLT-4, 48 h
[36] = read-out: LC50 (the source's name)

C=C1c2c(C)nn(-c3ccc(C#CCO[C@@H]4O[C@H](CO)[C@@H](O)[C@H](O)[C@H]4O)cc3)c2N(C)C23CC1C1(C)c4c(C)nn(-c5ccc(C#CCO[C@@H]6O[C@H](CO)[C@@H](O)[C@H](O)[C@H]6O)cc5)c4N(C)C(C)(CC12)C3 (stereo not given in full)
Activity [1]: 2.2%
Activity [2]: 2.1%
GI50 [3]: 1.04 µM
TGI [3]: 5.03 µM
CC50 [3, 36]: > 100 µM
GI50 [4]: 1.67 µM
TGI [4]: 3.77 µM
CC50 [4, 36]: 8.5 µM
Activity [5]: 36.6%
Activity [6]: 74%
GI50 [7]: 1.67 µM
TGI [7]: 3.44 µM
CC50 [7, 36]: 7.06 µM
GI50 [8]: 0.7 µM
TGI [8]: 2.56 µM
CC50 [8, 36]: 7.79 µM
Activity [9]: 61.3%
GI50 [10]: 1.89 µM
TGI [10]: 6.75 µM
CC50 [10, 36]: > 100 µM
GI50 [11]: 1.5 µM
TGI [11]: 3.06 µM
CC50 [11, 36]: 6.23 µM
GI50 [12]: 1.37 µM
TGI [12]: 2.79 µM
CC50 [12, 36]: 5.69 µM
GI50 [13]: 2.33 µM
TGI [13]: 6.59 µM
CC50 [13, 36]: 100 µM
GI50 [14]: 1.68 µM
TGI [14]: 4.09 µM
CC50 [14, 36]: 9.98 µM
inhibition at 10 µM [15]: 80%
GI50 [16]: 1.76 µM
TGI [16]: 3.39 µM
CC50 [16, 36]: 6.55 µM
Activity [17]: 31.1%
GI50 [18]: 1.62 µM
TGI [18]: 3.7 µM
CC50 [18, 36]: 8.46 µM
GI50 [19]: 1.57 µM
TGI [19]: 3.45 µM
GI50 [20]: 0.43 µM
TGI [20]: 2.52 µM
CC50 [20, 36]: 8.63 µM
Activity [21]: Active
GI50 [22]: 1.87 µM
TGI [22]: 3.66 µM
CC50 [22, 36]: 7.17 µM
inhibition [23]: Dose-dependent effect
GI50 [24]: 1.67 µM
TGI [24]: 3.26 µM
CC50 [24, 36]: 6.37 µM
GI50 [25]: 1.27 µM
TGI [25]: 2.97 µM
GI50 [26]: 1.38 µM
TGI [26]: 3.2 µM
CC50 [26, 36]: 7.42 µM
GI50 [27]: 1.63 µM
TGI [27]: 4.21 µM
CC50 [27, 36]: 16.1 µM
GI50 [28]: 1.76 µM
TGI [28]: 3.75 µM
CC50 [28, 36]: 8.01 µM
fold change (FC) [29]: 0.5
Activity [30]: 24.4%
fold change (FC) [31]: 1
fold change (FC) [32]: 0.3
Activity [33]: 56.9%
GI50 [34]: 1.82 µM
TGI [34]: 4.56 µM
CC50 [34, 36]: 15.4 µM
GI50 [35]: 1.28 µM
TGI [35]: 3.88 µM
CC50 [35, 36]: 100 µM
